# According to patent publication EP3717657B1, “A SYSTEM FOR ASSESSING MICROBIAL SUSCEPTIBILITY TO ANTIBIOTIC AGENTS” (Ascilion AB, priority 2017, dated 2019):
# What was measured:
# [1] = tested on: Escherichia coli (ATCC 25922); test: Antibiotic susceptibility by glucose consumption in culture medium, blood culture bottle inoculum (Example 1); type: cell-based; conditions: for Glucose concentration t=0: 0 minutes; for Glucose concentration t=60: 60 minutes; for Glucose concentration t=120: 120 minutes; for Glucose concentration t=180: 180 minutes; for dC/dT: rate of change in glucose concentration; for Glucose concentration t=240: 240 minutes;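 for dC/dT: rate calculated between the 60 and 180 min readings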
# Experimental: (§1) Strains of Escherichia coli (ATCC 25922), Enterococcus faecalis (ATCC 29212) and Staphylococcus aureus (ATCC 29213) were inoculated in blood culture bottles (SVA, Uppsala, Sweden) and cultivated according to the manufacturer's instructions until positive.
# (§2) Medium from each blood culture bottle was diluted 1:100 with cation adjusted Mueller-Hinton broth (SVA, Uppsala, Sweden) supplemented with glucose to a concentration of 1.0 mg/mL.
# (§3) Table 1: Concentrations of antibiotic agents are given in µg/mL.
# (§4) Glucose concentrations were measured at 0, 60, 120, 180, and 240 minutes using a WaveSense Jazz glucometer (AgaMatrix, Inc., Salem, NH, USA) with accompanying test strips.
# (§5) Susceptibility scores corresponding to MIC values were calculated as described above. A 80% threshold was applied, i.e. the lowest concentration of antibiotic that entailed a rate of change in glucose concentration that was equal to or less than 80% of the reference was selected as the Minimal Inhibitory Concentration. The rate of change was calculated between the measurements at 60 and 180 minutes.
# [2] = tested on: Staphylococcus aureus (ATCC 29213); test: as above; type: cell-based; conditions: for Glucose concentration t=0: 0 minutes; for Glucose concentration t=60: 60 minutes; for Glucose concentration t=120: 120 minutes; for Glucose concentration t=180: 180 minutes; for Glucose concentration t=240: 240 minutes; for dC/dT: rate of change in glucose concentration;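 for dC/dT: rate calculated between the 60 and 180 min readings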
# Experimental: as §1, §2, §3, §4, §5
substance,measurement,setting,value
Gentamicin,MIC Measured,"[1]; E.coli, 80% threshold of rate of change vs reference, between 60 and 180 minutes, obtained in 4 hours",1 µg/mL
same,F=the rate of change in glucose concentration in relation to the reference,"[1]; [Ab] 0,5 µg/mL",121%
same,Glucose concentration t=0,"[1]; [Ab] 0,5 µg/mL",144
same,Glucose concentration t=60,"[1]; [Ab] 0,5 µg/mL",147
same,Glucose concentration t=120,"[1]; [Ab] 0,5 µg/mL",147
same,Glucose concentration t=180,"[1]; [Ab] 0,5 µg/mL",72
same,dC/dT,"[1]; [Ab] 0,5 µg/mL",75
same,F=the rate of change in glucose concentration in relation to the reference,"[1]; [Ab] 0,25 µg/mL",139%
same,Glucose concentration t=0,"[1]; [Ab] 0,25 µg/mL",149
same,Glucose concentration t=60,"[1]; [Ab] 0,25 µg/mL",152
same,Glucose concentration t=120,"[1]; [Ab] 0,25 µg/mL",144
same,Glucose concentration t=180,"[1]; [Ab] 0,25 µg/mL",58
same,dC/dT,"[1]; [Ab] 0,25 µg/mL",86
same,F=the rate of change in glucose concentration in relation to the reference,[1]; [Ab] 1 µg/mL,77%
same,Glucose concentration t=0,[1]; [Ab] 1 µg/mL,144
same,Glucose concentration t=60,[1]; [Ab] 1 µg/mL,155
same,Glucose concentration t=120,[1]; [Ab] 1 µg/mL,148
same,Glucose concentration t=180,[1]; [Ab] 1 µg/mL,111
same,Glucose concentration t=240,[1]; [Ab] 1 µg/mL,53
same,dC/dT,[1]; [Ab] 1 µg/mL,48
same,F=the rate of change in glucose concentration in relation to the reference,[1]; [Ab] 2 µg/mL,9%
same,Glucose concentration t=60,[1]; [Ab] 2 µg/mL,161
same,Glucose concentration t=120,[1]; [Ab] 2 µg/mL,151
same,Glucose concentration t=180,[1]; [Ab] 2 µg/mL,143
same,Glucose concentration t=240,[1]; [Ab] 2 µg/mL,140
same,dC/dT,[1]; [Ab] 2 µg/mL,6
same,F=the rate of change in glucose concentration in relation to the reference,[1]; [Ab] 4 µg/mL,7%
same,Glucose concentration t=0,[1]; [Ab] 4 µg/mL,147
same,Glucose concentration t=60,[1]; [Ab] 4 µg/mL,163
same,Glucose concentration t=120,[1]; [Ab] 4 µg/mL,157
same,Glucose concentration t=180,[1]; [Ab] 4 µg/mL,148
same,Glucose concentration t=240,[1]; [Ab] 4 µg/mL,148
same,dC/dT,[1]; [Ab] 4 µg/mL,5
same,F=the rate of change in glucose concentration in relation to the reference,[1]; [Ab] 8 µg/mL,7%
same,Glucose concentration t=0,[1]; [Ab] 8 µg/mL,144
same,Glucose concentration t=60,[1]; [Ab] 8 µg/mL,156
same,Glucose concentration t=120,[1]; [Ab] 8 µg/mL,153
same,Glucose concentration t=180,[1]; [Ab] 8 µg/mL,150
same,Glucose concentration t=240,[1]; [Ab] 8 µg/mL,144
same,dC/dT,[1]; [Ab] 8 µg/mL,5
same,F=the rate of change in glucose concentration in relation to the reference,[1]; [Ab] 16 µg/mL,1%
same,Glucose concentration t=0,[1]; [Ab] 16 µg/mL,143
same,Glucose concentration t=60,[1]; [Ab] 16 µg/mL,155
same,Glucose concentration t=120,[1]; [Ab] 16 µg/mL,152
same,Glucose concentration t=180,[1]; [Ab] 16 µg/mL,149
same,Glucose concentration t=240,[1]; [Ab] 16 µg/mL,153
same,dC/dT,[1]; [Ab] 16 µg/mL,1
same,F=the rate of change in glucose concentration in relation to the reference,[1]; [Ab] 32 µg/mL,6%
same,Glucose concentration t=0,[1]; [Ab] 32 µg/mL,148
same,Glucose concentration t=60,[1]; [Ab] 32 µg/mL,158
same,Glucose concentration t=120,[1]; [Ab] 32 µg/mL,155
same,Glucose concentration t=180,[1]; [Ab] 32 µg/mL,150
same,Glucose concentration t=240,[1]; [Ab] 32 µg/mL,147
same,dC/dT,[1]; [Ab] 32 µg/mL,4
same,MIC Measured,"[2]; S.aureus, 80% threshold of rate of change vs reference, between 60 and 180 minutes, obtained in 4 hours",0.25 µg/mL
same,F=the rate of change in glucose concentration in relation to the reference,"[2]; [Ab] 0,5 µg/mL",57%
same,Glucose concentration t=0,"[2]; [Ab] 0,5 µg/mL",143
same,Glucose concentration t=60,"[2]; [Ab] 0,5 µg/mL",154
same,Glucose concentration t=120,"[2]; [Ab] 0,5 µg/mL",137
same,Glucose concentration t=180,"[2]; [Ab] 0,5 µg/mL",116
same,Glucose concentration t=240,"[2]; [Ab] 0,5 µg/mL",78
same,dC/dT,"[2]; [Ab] 0,5 µg/mL",19
same,F=the rate of change in glucose concentration in relation to the reference,"[2]; [Ab] 0,25 µg/mL",66%
same,Glucose concentration t=0,"[2]; [Ab] 0,25 µg/mL",143
same,Glucose concentration t=60,"[2]; [Ab] 0,25 µg/mL",146
same,Glucose concentration t=120,"[2]; [Ab] 0,25 µg/mL",140
same,Glucose concentration t=180,"[2]; [Ab] 0,25 µg/mL",102
same,Glucose concentration t=240,"[2]; [Ab] 0,25 µg/mL",55
same,dC/dT,"[2]; [Ab] 0,25 µg/mL",22
same,F=the rate of change in glucose concentration in relation to the reference,[2]; [Ab] 1 µg/mL,30%
same,Glucose concentration t=0,[2]; [Ab] 1 µg/mL,137
same,Glucose concentration t=60,[2]; [Ab] 1 µg/mL,154
same,Glucose concentration t=120,[2]; [Ab] 1 µg/mL,146
same,Glucose concentration t=180,[2]; [Ab] 1 µg/mL,134
same,Glucose concentration t=240,[2]; [Ab] 1 µg/mL,119
same,dC/dT,[2]; [Ab] 1 µg/mL,10
same,F=the rate of change in glucose concentration in relation to the reference,[2]; [Ab] 2 µg/mL,12%
same,Glucose concentration t=0,[2]; [Ab] 2 µg/mL,144
same,Glucose concentration t=60,[2]; [Ab] 2 µg/mL,154
same,Glucose concentration t=180,[2]; [Ab] 2 µg/mL,146
same,Glucose concentration t=240,[2]; [Ab] 2 µg/mL,148
same,dC/dT,[2]; [Ab] 2 µg/mL,4
same,F=the rate of change in glucose concentration in relation to the reference,[2]; [Ab] 4 µg/mL,10%
same,Glucose concentration t=60,[2]; [Ab] 4 µg/mL,157
same,Glucose concentration t=120,[2]; [Ab] 4 µg/mL,147
same,Glucose concentration t=180,[2]; [Ab] 4 µg/mL,150
same,Glucose concentration t=240,[2]; [Ab] 4 µg/mL,149
same,dC/dT,[2]; [Ab] 4 µg/mL,4
same,F=the rate of change in glucose concentration in relation to the reference,[2]; [Ab] 8 µg/mL,0%
same,Glucose concentration t=0,[2]; [Ab] 8 µg/mL,142
same,Glucose concentration t=60,[2]; [Ab] 8 µg/mL,154
same,Glucose concentration t=120,[2]; [Ab] 8 µg/mL,150
same,Glucose concentration t=180,[2]; [Ab] 8 µg/mL,154
same,Glucose concentration t=240,[2]; [Ab] 8 µg/mL,140
same,dC/dT,[2]; [Ab] 8 µg/mL,0
same,F=the rate of change in glucose concentration in relation to the reference,[2]; [Ab] 16 µg/mL,0%
same,Glucose concentration t=0,[2]; [Ab] 16 µg/mL,139
same,Glucose concentration t=60,[2]; [Ab] 16 µg/mL,145
same,Glucose concentration t=120,[2]; [Ab] 16 µg/mL,150
same,Glucose concentration t=180,[2]; [Ab] 16 µg/mL,145
same,Glucose concentration t=240,[2]; [Ab] 16 µg/mL,145
same,dC/dT,[2]; [Ab] 16 µg/mL,0
same,F=the rate of change in glucose concentration in relation to the reference,[2]; [Ab] 32 µg/mL,3%
same,Glucose concentration t=0,[2]; [Ab] 32 µg/mL,144
same,Glucose concentration t=60,[2]; [Ab] 32 µg/mL,148
same,Glucose concentration t=120,[2]; [Ab] 32 µg/mL,145
same,Glucose concentration t=180,[2]; [Ab] 32 µg/mL,146
same,Glucose concentration t=240,[2]; [Ab] 32 µg/mL,145
same,dC/dT,[2]; [Ab] 32 µg/mL,1
